Source: ChEMBL document CHEMBL3992552, “Mechanisms of action and structure-activity relationships of cytotoxic flavokawain derivatives” (Bioorg Med Chem, 2017)
Calls of active or inactive are those of the source. No cut-off for these calls is given here.

Experiments:
[1] = system: Huh-7; assay: Cytotoxicity against human HuH7 cells assessed as cell survival at 50 uM after 48 hrs by Hoechst 33342 staining based assay relative to control; assay type: functional; conditions: Huh-7, 48 h, read-out: Survival
[2] = system: Caco-2; assay: Cytotoxicity against human Caco2 cells assessed as cell survival at 50 uM after 48 hrs by Hoechst 33342 staining based assay relative to control; assay type: functional; conditions: Caco-2, 48 h, read-out: Survival
[3] = system: MDA-MB-231; assay: Cytotoxicity against human MDA-MB-231 cells assessed as cell survival at 50 uM after 48 hrs by Hoechst 33342 staining based assay relative to control; assay type: functional; conditions: MDA-MB-231, 48 h, read-out: Survival
[4] = system: NCI-H727; assay: Cytotoxicity against human NCI-H727 cells assessed as cell survival at 50 uM after 48 hrs by Hoechst 33342 staining based assay relative to control; assay type: functional; conditions: NCI-H727, 48 h, read-out: Survival
[5] = system: Huh-7; assay: Cytotoxicity against human HuH7 cells assessed as cell viability after 48 hrs by Hoechst 33342 staining based assay; assay type: functional; conditions: Huh-7, 48 h
[6] = system: Caco-2; assay: Cytotoxicity against human Caco2 cells assessed as cell viability after 48 hrs by Hoechst 33342 staining based assay; assay type: functional; conditions: Caco-2, 48 h
[7] = system: MDA-MB-231; assay: Cytotoxicity against human MDA-MB-231 cells assessed as cell viability after 48 hrs by Hoechst 33342 staining based assay; assay type: functional; conditions: MDA-MB-231, 48 h
[8] = system: HCT-116; assay: Cytotoxicity against human HCT116 cells assessed as cell viability after 48 hrs by Hoechst 33342 staining based assay; assay type: functional; conditions: HCT-116, 48 h
[9] = system: PC-3; assay: Cytotoxicity against human PC3 cells assessed as cell viability after 48 hrs by Hoechst 33342 staining based assay; assay type: functional; conditions: PC-3, 48 h
[10] = system: NCI-H727; assay: Cytotoxicity against human NCI-H727 cells assessed as cell viability after 48 hrs by Hoechst 33342 staining based assay; assay type: functional; conditions: NCI-H727, 48 h
[11] = system: HaCaT; assay: Cytotoxicity against human HaCaT cells assessed as cell viability after 48 hrs by Hoechst 33342 staining based assay; assay type: functional
[12] = Selectivity index, ratio of IC50 for human fibroblasts to IC50 for human Caco2 cells
[13] = Selectivity index, ratio of IC50 for human fibroblasts to IC50 for human MCF7 cells
[14] = system: HCT-116; assay: Induction of apoptosis in human HCT116 cells harboring wild-type p53 assessed as increase in early apoptosis at 2 times IC50 after 48 hrs by YoPro/propidium iodide/Hoechst staining based assay; assay type: functional, cell-based
[15] = system: PC-3; assay: Induction of apoptosis in human PC3 cells harboring p53 mutant assessed as increase in early apoptosis at 2 times IC50 after 48 hrs by YoPro/propidium iodide/Hoechst staining based assay; assay type: functional, cell-based
[16] = system: MCF7; assay: Induction of apoptosis in human MCF7 cells harboring wild-type p53 assessed as increase in late apoptosis at 2 times IC50 after 24 hrs by YoPro/propidium iodide/Hoechst staining based assay; assay type: functional, cell-based
[17] = system: PC-3; assay: Induction of apoptosis in human PC3 cells harboring p53 mutant assessed as increase in cleaved caspase3 at 2 times IC50 after 48 hrs by Hoechst staining based assay; assay type: functional, cell-based
[18] = system: Huh-7; assay: Cell cycle arrest in human HuH7 cells assessed as mitotic index at 10 uM measured after 48 hrs by Hoechst staining based fluorescence assay (reference value: 2.2); assay type: functional
[19] = system: Huh-7; assay: Cell cycle arrest in human HuH7 cells assessed as accumulation at S phase at 10 uM measured after 48 hrs by Hoechst/BrdU staining based fluorescence assay (reference value: 44%); assay type: functional
[20] = system: Caco-2; assay: Cell cycle arrest in human Caco2 cells assessed as mitotic index at 10 uM measured after 48 hrs by Hoechst staining based fluorescence assay (reference value: 3.6); assay type: functional
[21] = system: HCT-116; assay: Cell cycle arrest in human HCT116 cells harboring wild-type p53 assessed as mitotic index at 10 uM measured after 48 hrs by Hoechst staining based fluorescence assay (reference value: 2.3); assay type: functional
[22] = system: HCT-116; assay: Cell cycle arrest in human HCT116 cells harboring wild-type p53 assessed as accumulation at S phase at 10 uM measured after 48 hrs by Hoechst/BrdU staining based fluorescence assay (reference value: 68.4%); assay type: functional
[23] = system: PC-3; assay: Cell cycle arrest in human PC3 cells harboring p53 mutant assessed as accumulation at S phase at 10 uM measured after 48 hrs by Hoechst/BrdU staining based fluorescence assay (reference value: 40.8%); assay type: functional
[24] = system: NCI-H727; assay: Cell cycle arrest in human NCI-H727 cells harboring p53 mutant assessed as mitotic index at 10 uM measured after 48 hrs by Hoechst staining based fluorescence assay (reference value: 1.1); assay type: functional
[25] = system: NCI-H727; assay: Cell cycle arrest in human NCI-H727 cells harboring p53 mutant assessed as accumulation at S phase at 10 uM measured after 48 hrs by Hoechst/BrdU staining based fluorescence assay (reference value: 40.3%); assay type: functional
[26] = system: HaCaT; assay: Cell cycle arrest in human HaCaT cells harboring […] p53 assessed as accumulation at S phase at 10 uM measured after 48 hrs by Hoechst/BrdU staining based fluorescence assay (reference value: 52.3%); assay type: functional
[27] = system: Huh-7; assay: Cell cycle arrest in human HuH7 cells assessed as accumulation at S phase at 25 uM measured after 48 hrs by Hoechst/BrdU staining based fluorescence assay (reference value: 44%); assay type: functional
[28] = system: Caco-2; assay: Cell cycle arrest in human Caco2 cells assessed as accumulation at S phase at 25 uM measured after 48 hrs by Hoechst/BrdU staining based fluorescence assay (reference value: […]); assay type: functional
[29] = system: NCI-H727; assay: Cell cycle arrest in human NCI-H727 cells harboring p53 mutant assessed as mitotic index at 25 uM measured after 48 hrs by Hoechst staining based fluorescence assay (reference value: 1.1); assay type: functional
[30] = system: NCI-H727; assay: Cell cycle arrest in human NCI-H727 cells harboring p53 mutant assessed as accumulation at S phase at 25 uM measured after 48 hrs by Hoechst/BrdU staining based fluorescence assay (reference value: 40.3%); assay type: functional
[31] = system: MCF7; assay: Induction of apoptosis in human MCF7 cells harboring wild-type p53 assessed as upregulation of cyclinB1 measured after 18 hrs by Hoechst staining based assay; assay type: functional, cell-based
[32] = system: PC-3; assay: Induction of apoptosis in human PC3 cells harboring p53 mutant assessed as upregulation of cyclinB1 after 48 hrs by Hoechst staining based assay; assay type: functional, cell-based
[33] = Selectivity index, ratio of IC50 for human fibroblasts to IC50 for human HuH7 cells
[34] = Selectivity index, ratio of IC50 for human fibroblasts to IC50 for human NCI-H727 cells
[35] = system: MDA-MB-231; assay: Induction of apoptosis in human MDA-MB-231 cells harboring p53 mutant assessed as increase in late apoptosis at 2 times IC50 after 24 hrs by YoPro/propidium iodide/Hoechst staining based assay; assay type: functional, cell-based
[36] = system: MDA-MB-231; assay: Induction of apoptosis in human MDA-MB-231 cells harboring p53 mutant assessed as increase in cleaved caspase3 at 2 times IC50 after 24 hrs by Hoechst staining based assay; assay type: functional, cell-based
[37] = system: MDA-MB-231; assay: Cell cycle arrest in human MDA-MB-231 cells assessed as accumulation at M phase by Hoechst staining based fluorescence assay; assay type: functional
[38] = system: HaCaT; assay: Cell cycle arrest in human HaCaT cells assessed as accumulation at M phase by Hoechst staining based fluorescence assay; assay type: functional

| Compound | viability at 50 µM [1] [%] | viability at 50 µM [2] [%] | viability at 50 µM [3] [%] | viability at 50 µM [4] [%] | IC50 [5] [µM] | IC50 [6] [µM] | IC50 [7] [µM] | IC50 [8] [µM] | IC50 [9] [µM] | IC50 [10] [µM] | IC50 [11] [µM] | Ratio IC50 [12] | Ratio IC50 [13] | Activity [14] | Activity [15] | Activity [16] | Activity [17] | Activity [19] | Activity_index [20] | Activity_index [21] | further results |
| --- | --- | --- | --- | --- | --- | --- | --- | --- | --- | --- | --- | --- | --- | --- | --- | --- | --- | --- | --- | --- | --- |
| COc1cc(O)c(C(=O)/C=C/c2ccc(F)cc2)c(OC)c1 | 66 | 45 | 69 | 54 | > 20 | 9.2 | > 20 | 12.4 | 13.2 | > 20 | > 20 | >5.4 | >5.7 | Active | Active | Active | Active | inactive | 6.3 | 1.2 | Activity [18]: inactive; Activity [22]: 59%; Activity [23]: 37%; Activity [24]: inactive; Activity [25]: inactive; Activity [26]: inactive; Activity [27]: inactive; Activity [28]: 30%; Activity [29]: inactive; Activity [30]: inactive; Activity [31]: Active; Activity [32]: Active |
| COc1cccc(/C=C/C(=O)c2c(O)cc(OC)cc2OC)c1 | 13 | 1 | 11 | 1 | 15 | 11.2 | 13.2 | 7.7 | 7.3 | 14.8 | 10.4 | 2.4 | 2.6 | Active | Active | Active | Active | 56% | 14.4 | 1.2 | Ratio IC50 [33]: 1.8; Ratio IC50 [34]: 1.8; Activity [35]: Active; Activity [36]: Active; Activity_index [18]: 1.6; Activity [22]: 30%; Activity [23]: 39%; Activity_index [24]: 1.2; Activity [25]: 35%; Activity [26]: 49%; Activity [27]: 8.5%; Activity [28]: 34%; Activity_index [29]: 0.1; Activity [30]: 1.4%; Activity [37]: Active; Activity [31]: Active; Activity [32]: Active |
| COc1cc(O)c(C(=O)/C=C/c2ccccc2OC)c(OC)c1 | 39 | 43 | 37 | 11 | > 20 | 10 | > 20 | 9.2 | 9.6 | 11 | 10.9 | 3.6 | 3.5 | Active | Active | Active | Active | inactive | 6.8 | 1.2 | Ratio IC50 [34]: 3.3; Activity [18]: inactive; Activity [22]: 42%; Activity [23]: 36%; Activity_index [24]: 1; Activity [25]: 43%; Activity [26]: 49%; Activity [27]: inactive; Activity [28]: 37%; Activity_index [29]: 0.5; Activity [30]: 14%; Activity [38]: Active; Activity [31]: Active; Activity [32]: Active |
